pIC50: −log10 of the molar value. Where two headings read alike, the source gives them in different places.
Tests used:
CCR2 = target: T1, CCR2 (Homo sapiens, UniProt P41597)
T1 sequence (P41597 1-360 isoform P41597-2): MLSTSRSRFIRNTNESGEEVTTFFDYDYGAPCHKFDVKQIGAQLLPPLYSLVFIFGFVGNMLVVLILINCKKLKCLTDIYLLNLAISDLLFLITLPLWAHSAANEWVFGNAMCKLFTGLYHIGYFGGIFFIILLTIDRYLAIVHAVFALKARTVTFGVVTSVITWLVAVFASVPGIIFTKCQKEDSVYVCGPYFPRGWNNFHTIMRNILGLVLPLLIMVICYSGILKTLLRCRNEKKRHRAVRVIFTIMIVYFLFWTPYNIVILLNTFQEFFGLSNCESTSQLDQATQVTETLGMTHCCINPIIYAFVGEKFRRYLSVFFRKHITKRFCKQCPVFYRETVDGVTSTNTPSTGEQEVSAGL

THP-1 cells [1] = conditions: Homo sapiens
THP-1 cells [2] = assay: MCP-1 Induced Chemotaxis in THP-1 Cells; format: cell-based; conditions: Homo sapiens; THP-1 cells, MCP-1 0.01 μg/mL, 3 hours; read-out: Inhibition of MCP-1 Induced Chemotaxis IC50
Method: MCP-1 Induced Chemotaxis in THP-1 Cells
MCP-1 induced chemotaxis was run in a 24-well chemotaxis chamber. MCP-1 (0.01 μg/mL) was added to the lower chamber and 100 μL of THP-1 cells (1×10^7 cell/mL) was added to the top chamber. Varying concentrations of test compound were added to the top and bottom chambers. Cells were allowed to chemotax for 3 hours at 37° C. and 5% CO2. An aliquot of the cells that had migrated to the bottom chamber was taken and counted then compared to vehicle.

| Structure (SMILES) | inhibition at 25 µM (CCR2; read-out: Inhibition of MCP-1 Binding, percent inhibition) [%] | pIC50 (CCR2) | pIC50 (THP-1 cells [1]; THP-1, read-out: Inhibition of MCP-1 Induced Calcium Ion Influx IC50) | pIC50 (THP-1 cells [2]) | inhibition at 25 µM (THP-1 cells [1]; THP-1, read-out: Inhibition of MCP-1 Induced Calcium Ion Influx, percent inhibition) [%] |
| --- | --- | --- | --- | --- | --- |
| COc1ccc(C2CCN(C(CO)C3CCN(C(=O)c4cc5cc(Cl)ccc5o4)CC3)CC2)cc1 (stereo not drawn) [Cpd 160, (5-chloro-benzofuran-2-yl)-(4-{2-hydroxy-1-[4-(4-methoxy-phenyl)-piperidin-1-yl]-ethyl}-piperidin-1-yl)-methanone] | 56 |  |  |  | 33 |
| O=C(C=Cc1ccc(Cl)c(Cl)c1)N1CCC(C(CO)N2CCC(c3ccc(Cl)cc3)CC2)CC1 (stereo not drawn) [Cpd 244, (2E)-1-(4-{1-[4-(4-chloro-phenyl)-piperidin-1-yl]-2-hydroxy-ethyl}-piperidin-1-yl)-3-(3,4-dichloro-phenyl)-propenone] |  | 6.59 | 7.10 |  |  |
| O=C(O)C(C1CCN(C(=O)/C=C/c2ccc(F)cc2)CC1)N1CCC(c2c[nH]c3ccccc23)CC1 (stereo not drawn) [Cpd 77, {1-[(2E)-3-(4-fluoro-phenyl)-acryloyl]-piperidin-4-yl}-[4-(1H-indol-3-yl)-piperidin-1-yl]-acetic acid] |  | 7.15 |  | 7.22 |  |
| O=C(O)C(C1CCN(C(=O)Nc2cccc(Cl)c2)CC1)N1CCC(c2c[nH]c3ccccc23)CC1 (stereo not drawn) [Cpd 86, [1-(3-chloro-phenylcarbamoyl)-piperidin-4-yl]-[4-(1H-indol-3-yl)-piperidin-1-yl]-acetic acid] |  | 6.68 |  | 6.55 |  |
| O=C(O)C(C1CCN(C(=O)Nc2cc(F)cc(F)c2)CC1)N1CCC(c2c[nH]c3ccccc23)CC1 (stereo not drawn) [Cpd 28, [1-(3,5-difluoro-phenylcarbamoyl)-piperidin-4-yl]-[4-(1H-indol-3-yl)-piperidin-1-yl]-acetic acid] |  | 7.00 |  | 6.37 |  |
| O=C(/C=C/c1cc(F)cc(F)c1)N1CCC(C(CO)N2CCC(c3nc4ccccc4[nH]3)CC2)CC1 (stereo not drawn) [Cpd 174, (2E)-1-(4-{1-[4-(1H-benzoimidazol-2-yl)-piperidin-1-yl]-2-hydroxy-ethyl}-piperidin-1-yl)-3-(3,5-difluoro-phenyl)-propenone] |  | 6.82 |  | 6.35 |  |
| O=C(O)C(C1CCN(C(=O)Nc2ccc(F)c(Cl)c2)CC1)N1CCC(c2c[nH]c3ccccc23)CC1 (stereo not drawn) [Cpd 48, [1-(3-chloro-4-fluoro-phenylcarbamoyl)-piperidin-4-yl]-[4-(1H-indol-3-yl)-piperidin-1-yl]-acetic acid] |  | 7.52 |  | 7.40 |  |
| O=C(O)C(C1CCN(C(=O)Nc2cccc(Br)c2)CC1)N1CCC(c2c[nH]c3ccccc23)CC1 (stereo not drawn) [Cpd 85, [1-(3-bromo-phenylcarbamoyl)-piperidin-4-yl]-[4-(1H-indol-3-yl)-piperidin-1-yl]-acetic acid] |  | 6.77 |  | 6.72 |  |
| CC(C)(C)OC(=O)Nc1ccc2[nH]cc(C3CCN(C(C(=O)O)C4CCN(C(=O)/C=C/c5cc(F)c(F)c(F)c5)CC4)CC3)c2c1 (stereo not drawn) [Cpd 81] |  | 7.52 |  | 7.52 |  |
| Cc1ccc(NC(=O)N2CCC(C(C(=O)O)N3CCC(c4c[nH]c5ccccc45)CC3)CC2)cc1Cl (stereo not drawn) [Cpd 49, [1-(3-chloro-4-methyl-phenylcarbamoyl)-piperidin-4-yl]-[4-(1H-indol-3-yl)-piperidin-1-yl]-acetic acid] |  | 7.60 |  | 8.40 |  |
| CC(=O)Nc1ccc2[nH]cc(C3CCN(C(C(=O)O)C4CCN(C(=O)/C=C/c5cc(F)c(F)c(F)c5)CC4)CC3)c2c1 (stereo not drawn) [Cpd 17, [4-(5-acetylamino-1H-indol-3-yl)-piperidin-1-yl]-{1-[(2E)-3-(3,4,5-trifluoro-phenyl)-acryloyl]-piperidin-4-yl}-acetic acid] |  | 6.80 |  | 7.70 |  |

Continued, in another order:

| inhibition at 25 µM (CCR2; read-out: Inhibition of MCP-1 Binding, percent inhibition) [%] | pIC50 (CCR2) | pIC50 (THP-1 cells [1]; THP-1, read-out: Inhibition of MCP-1 Induced Calcium Ion Influx IC50) | pIC50 (THP-1 cells [2]) | Structure (SMILES) | inhibition at 25 µM (THP-1 cells [1]; THP-1, read-out: Inhibition of MCP-1 Induced Calcium Ion Influx, percent inhibition) [%] |
| --- | --- | --- | --- | --- | --- |
|  | 8.70 |  | 8.00 | O=C(O)C(C1CCN(C(=O)/C=C/c2ccc(F)c(Cl)c2)CC1)N1CCC(c2c[nH]c3ccccc23)CC1 (stereo not drawn) [Cpd 76, {1-[(2E)-3-(3-chloro-4-fluoro-phenyl)-acryloyl]-piperidin-4-yl}-[4-(1H-indol-3-yl)-piperidin-1-yl]-acetic acid] |  |
|  | 7.70 |  | 8.15 | O=C(O)C(C1CCN(C(=O)/C=C/c2cccc(Br)c2)CC1)N1CCC(c2c[nH]c3ccccc23)CC1 (stereo not drawn) [Cpd 71, {1-[(2E)-3-(3-bromo-phenyl)-acryloyl]-piperidin-4-yl}-[4-(1H-indol-3-yl)-piperidin-1-yl]-acetic acid] |  |
|  | 8.40 |  | 8.05 | O=C(O)C(C1CCN(C(=O)/C=C/c2ccc(C(F)(F)F)c(F)c2)CC1)N1CCC(c2c[nH]c3ccccc23)CC1 (stereo not drawn) [Cpd 75, {1-[(2E)-3-(3-fluoro-4-trifluoromethyl-phenyl)-acryloyl]-piperidin-4-yl}-[4-(1H-indol-3-yl)-piperidin-1-yl]-acetic acid] |  |
|  | 8.40 |  | 7.70 | O=C(O)C(C1CCN(C(=O)/C=C/c2cccc(Cl)c2)CC1)N1CCC(c2c[nH]c3ccccc23)CC1 (stereo not drawn) [Cpd 93, {1-[(2E)-3-(3-chloro-phenyl)-acryloyl]-piperidin-4-yl}-[4-(1H-indol-3-yl)-piperidin-1-yl]-acetic acid] |  |
|  | 8.00 |  | 8.00 | COc1ccc2[nH]cc(C3CCN(C(C(=O)O)C4CCN(C(=O)Nc5ccc(Cl)c(Cl)c5)CC4)CC3)c2c1 (stereo not drawn) [Cpd 94, [1-(3,4-dichloro-phenylcarbamoyl)-piperidin-4-yl]-[4-(5-methoxy-1H-indol-3-yl)-piperidin-1-yl]-acetic acid] |  |
|  | 8.00 |  | 7.52 | O=C(O)C(C1CCN(C(=O)/C=C/c2cc(F)c(F)c(F)c2)CC1)N1CCC(c2c[nH]c3ncccc23)CC1 (stereo not drawn) [Cpd 151, [4-(1H-pyrrolo[2,3-b]pyridin-3-yl)-piperidin-1-yl]-{1-[(2E)-3-(3,4,5-trifluoro-phenyl)-acryloyl]-piperidin-4-yl}-acetic acid] |  |
|  | 7.85 |  | 7.40 | COc1cccc2[nH]cc(C3CCN(C(C(=O)O)C4CCN(C(=O)/C=C/c5cc(F)cc(F)c5)CC4)CC3)c12 (stereo not drawn) [Cpd 41, {1-[(2E)-3-(3,5-difluoro-phenyl)-acryloyl]-piperidin-4-yl}-[4-(4-methoxy-1H-indol-3-yl)-piperidin-1-yl]-acetic acid] |  |
|  | 8.52 |  | 7.70 | Cc1cccc(/C=C/C(=O)N2CCC(C(C(=O)O)N3CCC(c4c[nH]c5ccccc45)CC3)CC2)c1 (stereo not drawn) [Cpd 70, [4-(1H-indol-3-yl)-piperidin-1-yl]-{1-[(2E)-3-m-tolyl-acryloyl]-piperidin-4-yl}-acetic acid] |  |
|  | 9.00 |  | 9.70 | O=C(O)C(C1CCN(C(=O)/C=C/c2ccc(Cl)c(Cl)c2)CC1)N1CCC(c2c[nH]c3cc(Cl)ccc23)CC1 (stereo not drawn) [Cpd 46, [4-(6-chloro-1H-indol-3-yl)-piperidin-1-yl]-{1-[(2E)-3-(3,4-dichloro-phenyl)-acryloyl]-piperidin-4-yl}-acetic acid] |  |
|  | 7.70 |  | 8.52 | O=C(O)C(C1CCN(C(=O)Nc2ccc(Cl)c(C(F)(F)F)c2)CC1)N1CCC(c2c[nH]c3ccccc23)CC1 (stereo not drawn) [Cpd 57, [1-(4-chloro-3-trifluoromethyl-phenylcarbamoyl)-piperidin-4-yl]-[4-(1H-indol-3-yl)-piperidin-1-yl]-acetic acid] |  |
|  | 7.62 |  | 9.40 | CS(=O)(=O)Nc1ccc2[nH]cc(C3CCN(C(C(=O)O)C4CCN(C(=O)/C=C/c5cc(F)cc(F)c5)CC4)CC3)c2c1 (stereo not drawn) [Cpd 29, {1-[(2E)-3-(3,5-difluoro-phenyl)-acryloyl]-piperidin-4-yl}-[4-(5-methanesulfonylamino-1H-indol-3-yl)-piperidin-1-yl]-acetic acid] |  |
|  | 8.70 |  | 8.72 | O=C(O)C(C1CCN(C(=O)/C=C/c2ccc(Cl)c(Cl)c2)CC1)N1CCC(c2c[nH]c3cc(F)ccc23)CC1 (stereo not drawn) [Cpd 39, {1-[(2E)-3-(3,4-dichloro-phenyl)-acryloyl]-piperidin-4-yl}-[4-(6-fluoro-1H-indol-3-yl)-piperidin-1-yl]-acetic acid] |  |
|  | 8.00 |  | 9.70 | COc1ccc2[nH]cc(C3CCN(C(C(=O)O)C4CCN(C(=O)/C=C/c5ccc(Cl)c(Cl)c5)CC4)CC3)c2c1 (stereo not drawn) [Cpd 47, {1-[(2E)-3-(3,4-dichloro-phenyl)-acryloyl]-piperidin-4-yl}-[4-(5-methoxy-1H-indol-3-yl)-piperidin-1-yl]-acetic acid] |  |
|  | 8.10 |  | 7.52 | O=C(O)C(C1CCN(C(=O)/C=C/c2cccc(C(F)(F)F)c2)CC1)N1CCC(c2c[nH]c3ccccc23)CC1 (stereo not drawn) [Cpd 35, [4-(1H-indol-3-yl)-piperidin-1-yl]-{1-[(2E)-3-(3-trifluoromethyl-phenyl)-acryloyl]-piperidin-4-yl}-acetic acid] |  |
|  | 8.00 |  | 9.15 | O=C(O)C(C1CCN(C(=O)/C=C/c2cc(F)cc(F)c2)CC1)N1CCC(c2c[nH]c3cc(F)ccc23)CC1 (stereo not drawn) [Cpd 24, {1-[(2E)-3-(3,5-difluoro-phenyl)-acryloyl]-piperidin-4-yl}-[4-(6-fluoro-1H-indol-3-yl)-piperidin-1-yl]-acetic acid] |  |
|  | 8.00 |  | 8.22 | O=C(O)C(C1CCN(C(=O)/C=C/c2ccc(Cl)cc2)CC1)N1CCC(c2c[nH]c3ccccc23)CC1 (stereo not drawn) [Cpd 34, {1-[(2E)-3-(4-chloro-phenyl)-acryloyl]-piperidin-4-yl}-[4-(1H-indol-3-yl)-piperidin-1-yl]-acetic acid] |  |
